Consider 13 compounds from ChEMBL document CHEMBL1201862, “PubChem BioAssay data set” (2004).

Test systems include CAKI-1; COLO 205; HCT-15; HOP-62; HT-29; Hs-578T; IGROV-1; OVCAR-8; SF-268; SK-MEL-2; SK-MEL-5; SK-OV-3; SR; TK-10; M14; MDA-N; RXF 393.
Common to all, as to assay: NCI tumour cell line growth inhibition, 48 h

Each structure is given as a SMILES string.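 48-hour exposure; five concentrations; linearly interpolated endpoints. GI50: concentration for 50% inhibition of growth.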 Calls of active or inactive are those of the source. Cut-off read from the data, not from the text of the source: active = GI50 up to about 1.1 µM and inactive = higher.

On to `OCC(O)C1OC2CC1Nc1ccccc1N2` (centres undefined), for which the GI50 in the assay with CAKI-1 is > 100 µM (inactive); in the assay with COLO 205 it was > 100 µM (inactive); in the assay with HCT-15, more than 100 µM; in the assay with HOP-62, > 100 µM (inactive); in the assay on HT-29, > 100 µM (inactive); in the assay with Hs-578T, > 100 µM (inactive). The GI50 in the assay on IGROV-1, in the assay with OVCAR-8, in the assay on SF-268, in the assay on SK-MEL-2, in the assay on SK-MEL-5 and in the assay on SK-OV-3 was > 100 µM (inactive) in each case. The values for the GI50 in the assay on SR and with TK-10 were > 10 µM (inactive) and > 100 µM (inactive), respectively.
In the case of `CN1CCN(C2CC(=O)c3c(Cl)sc(Cl)c32)CC1` (centres undefined), the GI50 is 21.8 µM (inactive) in the assay with CAKI-1; 20.7 µM (inactive) in the assay on COLO 205; 10.4 µM in the assay on HCT-15; 19 µM (inactive) with HOP-62; 11.4 µM (inactive) in the assay on HT-29; 8.69 µM (inactive) with IGROV-1. The GI50 with M14 is 6.82 µM (inactive); in the assay with MDA-N, 9.02 µM (inactive); in the assay on OVCAR-8 it was 7.66 µM (inactive); with SF-268, 8.85 µM (inactive); with SK-MEL-2, 19.1 µM (inactive); with SK-MEL-5, 30.1 µM (inactive). In addition, the GI50 in the assay with SK-OV-3 was > 54.6 µM (inactive); with SR, 4 µM (inactive); in the assay with TK-10, 29 µM (inactive).
`CCOC(=O)C1C(c2ccccc2)C2(C#N)C(=N)OC1(C)C2(C#N)C#N` (centres undefined): the GI50 was 6.61 µM (inactive) in the assay with CAKI-1; 16.4 µM (inactive) in the assay with COLO 205; 37.3 µM in the assay on HCT-15; 16 µM (inactive) with HT-29; 29.5 µM (inactive) in the assay with Hs-578T; 18.5 µM (inactive) in the assay with IGROV-1. Moreover, the GI50 in the assay with M14 was 40.6 µM (inactive); with MDA-N, 14.7 µM (inactive); with OVCAR-8, 24.5 µM (inactive); in the assay on RXF 393 it was 15.8 µM (inactive); in the assay on SF-268, 22.4 µM (inactive); with SK-MEL-2, 20.7 µM (inactive). Besides, the GI50 in the assay on SK-MEL-5 is 10.5 µM (inactive); in the assay on SK-OV-3, > 100 µM (inactive); in the assay on TK-10 it was 26.2 µM (inactive).
`CN(C)C1(N(C)C)Oc2c(c(=O)n(C)c(=O)n2C)C(c2ccc(Br)cc2)C1(F)F` (centres undefined): the GI50 with CAKI-1 is > 100 µM (inactive); with COLO 205, > 100 µM (inactive); in the assay on HCT-15 it was more than 100 µM; with HOP-62 it was > 100 µM (inactive); in the assay on M14, > 100 µM (inactive); in the assay with RXF 393 it was > 100 µM (inactive). Further, the GI50 in the assay on SF-268, in the assay on SK-MEL-2, in the assay with SK-MEL-5, with SK-OV-3 and in the assay with TK-10 was > 100 µM (inactive) each time.
Consider `Cn1nc2ccc3nccc(N4CCN(CCO)CC4)c3c2n1`, for which the GI50 in the assay on COLO 205 is > 100 µM (inactive); in the assay with HCT-15 it was 4.02 µM; in the assay with HOP-62, > 100 µM (inactive); with HT-29, > 100 µM (inactive); in the assay on Hs-578T it was > 100 µM (inactive); in the assay on IGROV-1, > 100 µM (inactive). Further, the GI50 in the assay on M14, in the assay with MDA-N, in the assay on OVCAR-8, in the assay on RXF 393, in the assay on SF-268 and with SK-MEL-2 was > 100 µM (inactive) each time. Also, the GI50 in the assay with SK-MEL-5, in the assay on SK-OV-3 and in the assay on TK-10 was > 100 µM (inactive) in each case.
Regarding `C1=C[C@]2(CCC13OCCO3)COc1ccccc12`, the GI50 in the assay with CAKI-1 is > 100 µM (inactive); in the assay on COLO 205, 88.7 µM (inactive); in the assay on HCT-15 it was 28 µM; in the assay with HOP-62, 41.2 µM (inactive); in the assay on HT-29 it was 28.5 µM (inactive); in the assay on M14, 26.6 µM (inactive). Moreover, the GI50 is 35.6 µM (inactive) with MDA-N; 32.4 µM (inactive) with OVCAR-8; 34.7 µM (inactive) in the assay on SK-MEL-2; 52 µM (inactive) in the assay on SK-MEL-5; 53.2 µM (inactive) in the assay with SK-OV-3; 29.9 µM (inactive) in the assay on SR. In the assay with TK-10, the GI50 was 49.1 µM (inactive).
Take `CC1=C(OC2OC(CO)C(O)C(O)C2O)C(=O)C[C@H]2C1=CC[C@@H]1[C@@]2(C)C(=O)C[C@]2(C)[C@@H]([C@@](C)(O)C(=O)CCC(C)(C)O)[C@H](O)C[C@@]12C` (some centres undefined): the GI50 in the assay with CAKI-1 is > 100 µM (inactive); in the assay with COLO 205, > 100 µM (inactive); in the assay with HCT-15, more than 100 µM; in the assay on HOP-62, > 100 µM (inactive); with HT-29 it was > 100 µM (inactive); in the assay with IGROV-1, > 100 µM (inactive). The GI50 in the assay on M14, in the assay with MDA-N, in the assay with OVCAR-8, in the assay on RXF 393, with SF-268 and in the assay on SK-MEL-2 was > 100 µM (inactive) each time. Further, the GI50 with SK-MEL-5, in the assay with SK-OV-3, with SR and in the assay on TK-10 was > 100 µM (inactive) throughout.
For the compound `O=[N+]([O-])c1ccc2nc3ccccc3cc2c1`, the GI50 was 0.0149 µM (active) in the assay on CAKI-1; 3.56 µM (inactive) in the assay with COLO 205; 1.37 µM with HCT-15; 2.26 µM (inactive) in the assay with HOP-62; 2 µM (inactive) in the assay with HT-29; 3.21 µM (inactive) with Hs-578T. Moreover, the GI50 in the assay on IGROV-1 was 1.91 µM (inactive); in the assay on M14 it was 3.33 µM (inactive); in the assay on OVCAR-8 it was 1.26 µM (inactive); in the assay on RXF 393, 13.8 µM (inactive); in the assay on SF-268, 6.44 µM (inactive); in the assay on SK-MEL-2, 4.73 µM (inactive). Also, the GI50 in the assay with SK-MEL-5 was 3.1 µM (inactive); with SK-OV-3, 4.21 µM (inactive); in the assay on TK-10, 1.64 µM (inactive).
Regarding `Cc1ccc(NC(Nc2ccc(C)cc2C)=C(C(Cl)=C(Cl)Cl)[N+](=O)[O-])c(C)c1`, the GI50 in the assay with CAKI-1 is 20.6 µM (inactive); in the assay on COLO 205 it was 17.5 µM (inactive); in the assay on HCT-15, 14.9 µM; with HOP-62, 16.9 µM (inactive); in the assay with HT-29, 17.5 µM (inactive); in the assay on Hs-578T it was 22.8 µM (inactive). Further, the GI50 in the assay with IGROV-1 was 14.1 µM (inactive); in the assay with M14, 5.36 µM (inactive); with OVCAR-8, 16.2 µM (inactive); in the assay on RXF 393 it was 15.2 µM (inactive); in the assay with SF-268, 17.3 µM (inactive); in the assay on SK-MEL-5 it was 4.63 µM (inactive). In addition, the GI50 in the assay with SK-OV-3 is 20 µM (inactive); in the assay with SR, 2.9 µM (inactive); with TK-10, 16.9 µM (inactive).
Consider `Cc1ccc(C)c(N2C(=O)C(=O)c3c(C)ccc(C)c32)c1`, for which the GI50 with CAKI-1 is 25.5 µM (inactive); with COLO 205 it was 34.9 µM (inactive); with HCT-15, 14.2 µM; in the assay with HOP-62, 40.6 µM (inactive); with HT-29 it was 20.8 µM (inactive); in the assay with Hs-578T, 22.4 µM (inactive). Further, the GI50 in the assay with IGROV-1 was 15.3 µM (inactive); with M14 it was 17.1 µM (inactive); in the assay on OVCAR-8 it was 23.8 µM (inactive); in the assay on RXF 393, 49.7 µM (inactive); in the assay with SF-268, 23.3 µM (inactive); in the assay with SK-MEL-2, 20.6 µM (inactive). In addition, the GI50 in the assay with SK-MEL-5 was 14.8 µM (inactive); in the assay with SK-OV-3, 47.9 µM (inactive); in the assay on SR it was 15.4 µM (inactive); in the assay with TK-10, 28.8 µM (inactive).
As for `CCOC(=O)c1[nH]c2nc(SC)nc(NC)c2c1N`, the GI50 in the assay on CAKI-1 was > 100 µM (inactive); in the assay with COLO 205, > 100 µM (inactive); in the assay with HCT-15, 84.1 µM; in the assay with HOP-62 it was > 100 µM (inactive); in the assay on HT-29, 47.3 µM (inactive); with Hs-578T, > 100 µM (inactive). Further, the GI50 in the assay with IGROV-1 was > 100 µM (inactive); with M14, 92.7 µM (inactive); in the assay on MDA-N, > 100 µM (inactive); in the assay with OVCAR-8, > 100 µM (inactive); in the assay on RXF 393, > 100 µM (inactive); in the assay with SF-268, > 100 µM (inactive). Moreover, the GI50 was > 100 µM (inactive) with SK-MEL-2, 30.3 µM (inactive) in the assay on SK-MEL-5, > 100 µM (inactive) in the assay on SK-OV-3 and > 100 µM (inactive) with TK-10.
Take `CC(C)C1=CC23CCC4C(C)(C(=O)O)CCCC4(C)C2CC1C1C(=O)N(c2cccc(N4C(=O)C5C6CC7C8(C)CCCC(C)(C(=O)O)C8CCC7(C=C6C(C)C)C5C4=O)c2)C(=O)C13` (centres undefined): the GI50 in the assay on COLO 205 is 10.6 µM (inactive); with HCT-15, 11.4 µM; with HOP-62, 12 µM (inactive); in the assay on HT-29, 3.84 µM (inactive); in the assay on Hs-578T it was 3.77 µM (inactive); in the assay on M14, 11.6 µM (inactive). The GI50 is 8.61 µM (inactive) in the assay on OVCAR-8; 12.6 µM (inactive) in the assay on RXF 393; 12 µM (inactive) with SF-268; 15.7 µM (inactive) in the assay with SK-MEL-2; 15.3 µM (inactive) in the assay with SK-MEL-5; 9.55 µM (inactive) in the assay with SR. Further, the GI50 in the assay on TK-10 was 15.9 µM (inactive).
Regarding `C/C(=N\NC(=O)c1ccncc1)c1ccccc1F`, the GI50 was > 10 µM (inactive) in the assay with CAKI-1; > 10 µM (inactive) with COLO 205; more than 10 µM in the assay on HCT-15; > 10 µM (inactive) in the assay on HOP-62; > 10 µM (inactive) with IGROV-1; > 10 µM (inactive) in the assay with M14. Besides, the GI50 with MDA-N, in the assay on OVCAR-8, with RXF 393, with SF-268, in the assay on SK-MEL-2 and in the assay on SK-MEL-5 was > 10 µM (inactive) in each case. Also, the GI50 in the assay with SK-OV-3, in the assay with SR and in the assay on TK-10 was > 10 µM (inactive) throughout.
